Tested on: panel of breast cancer cell lines
Experiment: Compound A with targeted agents and chemotherapies, 72-hour in vitro proliferation assays
Assay type: cell-based
Details: 72-hour proliferation
[1] = MCF7 cells, Compound A × partner agent
[2] = MDA-MB-175-VII cells, Compound A × partner agent
[3] = MDA-MB-231 cells, Compound A × partner agent
[4] = MDA-MB-361 cells, Compound A × partner agent
[5] = MDA-MB-436 cells, Compound A × partner agent
[6] = MDA-MB-453 cells, Compound A × partner agent
[7] = MDA-MB-468 cells, Compound A × partner agent
[8] = SK-BR-3 cells, Compound A × partner agent
[9] = SUM159PT cells, combination of compound A with the named agent
[10] = T47D cells, combination of compound A with the named agent
[11] = ZR-75-1 cells, combination of compound A with the named agent
[12] = ZR-75-30 cells, combination of compound A with the named agent

SMILES: N.N.[Cl][Pt][Cl] [Cisplatin]
- HSA volume (HCC2218, compound A × partner): 2.71
- Loewe Volume (HCC2218, compound A × partner): −0.66
- Synergy Score (HCC2218, compound A × partner): 7.99
- Best CI (HDQ-P1, compound A × partner): 0.60
- Best CI Level (HDQ-P1, compound A × partner): 30
- Bliss Volume (HDQ-P1, compound A × partner): 0.53
- HSA volume (HDQ-P1, compound A × partner): −0.23
- Loewe Volume (HDQ-P1, compound A × partner): 0.64
- Synergy Score (HDQ-P1, compound A × partner): 1.46
- Best CI (HMC-1-8, compound A × partner): 0.35
- Best CI Level (HMC-1-8, compound A × partner): 180
- Bliss Volume (HMC-1-8, compound A × partner): 20.03
- HSA volume (HMC-1-8, compound A × partner): 7.01
- Loewe Volume (HMC-1-8, compound A × partner): 6.38
- Synergy Score (HMC-1-8, compound A × partner): 14.62
- Best CI (JIMT-1, compound A × partner): 0.61
- Best CI Level (JIMT-1, compound A × partner): 20
- Bliss Volume (JIMT-1, compound A × partner): 0.69
- HSA volume (JIMT-1, compound A × partner): −1.64
- Loewe Volume (JIMT-1, compound A × partner): −0.53
- Synergy Score (JIMT-1, compound A × partner): 1.21
- Best CI (KPL-1, compound A × partner): 0.76
- Best CI Level (KPL-1, compound A × partner): 110
- Bliss Volume (KPL-1, compound A × partner): −0.41
- HSA volume (KPL-1, compound A × partner): 0.95
- Loewe Volume (KPL-1, compound A × partner): 0.45
- Synergy Score (KPL-1, compound A × partner): 4.51
- Best CI [1]: 0.45
- Best CI Level [1]: 150
- Bliss Volume [1]: 11.15
- HSA volume [1]: 4.64
- Loewe Volume [1]: 3.51
- Synergy Score [1]: 6.98
- Best CI [2]: 0.49
- Best CI Level [2]: 60
- Bliss Volume [2]: 9.70
- HSA volume [2]: −1.47
- Loewe Volume [2]: 2.49
- Synergy Score [2]: 4.03
- Best CI [3]: 0.34
- Best CI Level [3]: 70
- Bliss Volume [3]: 5.98
- HSA volume [3]: 4.74
- Loewe Volume [3]: 6.47
- Synergy Score [3]: 4.48
- Best CI [4]: 0.81
- Best CI Level [4]: 165
- Bliss Volume [4]: 3.24
- HSA volume [4]: −1.91
- Loewe Volume [4]: −2.31
- Synergy Score [4]: 3.36
- Best CI [5]: 1.18
- Best CI Level [5]: 120
- Bliss Volume [5]: 2.08
- HSA volume [5]: 1.62
- Loewe Volume [5]: 1.58
- Synergy Score [5]: 2.45
- Best CI [6]: 0.34
- Best CI Level [6]: 70
- Bliss Volume [6]: 13.82
- HSA volume [6]: 4.06
- Loewe Volume [6]: 4.70
- Synergy Score [6]: 9.66
- Best CI [7]: 0.53
- Best CI Level [7]: 105
- Bliss Volume [7]: 27.91
- HSA volume [7]: 5.89
- Loewe Volume [7]: 4.42
- Synergy Score [7]: 8.65
- Best CI [8]: 0.14
- Best CI Level [8]: 150
- Bliss Volume [8]: 19.53
- HSA volume [8]: 6.00
- Loewe Volume [8]: 5.11
- Synergy Score [8]: 10.90
- Best CI [9]: 0.79
- Best CI Level [9]: 20
- Bliss Volume [9]: −1.91
- HSA volume [9]: −4.36
- Loewe Volume [9]: −4.20
- Synergy Score [9]: 0.41
- Best CI [10]: 0.79
- Best CI Level [10]: 80
- Bliss Volume [10]: −0.02
- HSA volume [10]: 0.03
- Loewe Volume [10]: 0.73
- Synergy Score [10]: 3.05
- Best CI [11]: 0.88
- Best CI Level [11]: 155
- Bliss Volume [11]: 9.45
- HSA volume [11]: 7.38
- Loewe Volume [11]: 8.42
- Synergy Score [11]: 12.40
- Best CI [12]: 0.24
- Best CI Level [12]: 95
- Bliss Volume [12]: 14.77
- HSA volume [12]: 8.48
- Loewe Volume [12]: 9.66
- Synergy Score [12]: 16.44
